Experiments:
[1] = target: T1, Pyruvate dehydrogenase kinase (Homo sapiens, UniProt Q15119+Q15120+Q16654+Q15118); test: Binding affinity to pyruvate dehydrogenase kinase (unknown origin) by VER-00160364 probe based fluorescence polarization assay
[2] = target: T1, Pyruvate dehydrogenase kinase; test: Inhibition of pyruvate dehydrogenase kinase in human PC3 cells incubated for 90 mins by phospho(Ser293)E1alpha MSP ELISA method; format: cell-based; conditions: pc-3
[3] = target: T1, Pyruvate dehydrogenase kinase; test: Inhibition of pyruvate dehydrogenase kinase (unknown origin) assessed as reduction in E1 phosphorylation incubated for 1 hr by DELFIA method; format: protein assay

SMILES | IC50 [1] | IC50 [2] | IC50 [3]
Cc1cc(S(=O)(=O)NCc2ccccc2)cnc1-c1ccc2c(c1)CCC(c1cccnc1)N2C(=O)c1ccc(O)cc1O (stereo not drawn) |  |  | 10 nM
Cc1cc(S(=O)(=O)N2CCC(F)(F)CC2)cnc1-c1ccc2c(c1)CCC(c1cccnc1)N2C(=O)c1ccc(O)cc1O (stereo not drawn) |  |  | 10 nM
O=C(c1ccc(O)cc1O)N1c2ccccc2CCC1CNC(=O)C(F)(F)F (stereo not drawn) | 100 nM |  | 
O=C(c1ccc(O)cc1O)N1c2ccccc2CCC1c1ccco1 (stereo not drawn) | 1000 nM |  | 
O=C(c1ccc(O)cc1O)N1c2ccccc2CCC1c1cccnc1 (stereo not drawn) | 100 nM |  | 
C[C@H]1CCc2cc(-c3ccnc4ccccc34)ccc2N1C(=O)c1ccc(O)cc1O | 100 nM | 1000 nM | 
O=C(c1ccc(O)cc1O)N1c2ccc(-c3ncnc4cccc(F)c34)cc2CCC1c1cccnc1 (stereo not drawn) |  |  | 10 nM
Cc1cnc(Cl)nc1-c1ccc2c(c1)CC[C@H](C)N2C(=O)c1cc(F)c(O)cc1O | 10 nM | 1000 nM | 
O=C(c1ccc(O)cc1O)N1c2ccccc2CCC1c1cccs1 (stereo not drawn) | 1000 nM |  | 
CC(C)C(=O)Nc1ccc2c(c1)CCCN2C(=O)c1ccc(O)cc1O | 1000 nM |  | 
Cc1n[nH]c(C)c1C1CCc2ccccc2N1C(=O)c1ccc(O)cc1O (stereo not drawn) | 1000 nM |  | 
Cc1cnc(Cl)nc1-c1ccc2c(c1)CC[C@H](c1cccnc1)N2C(=O)c1ccc(O)cc1O |  | 1000 nM | 100 nM
C[C@H]1CCc2cc(C(=O)N(C)Cc3cccc4cnccc34)ccc2N1C(=O)c1ccc(O)cc1O | 10 nM | 1000 nM | 
Cc1cc(S(=O)(=O)N2CC(F)(F)C2)cnc1-c1ccc2c(c1)CCC(c1cccnc1)N2C(=O)c1ccc(O)cc1O (stereo not drawn) |  |  | 10 nM
O=C(c1ccc(O)cc1O)N1c2ccc(-c3nc(Cl)nc4[nH]ccc34)cc2CCC1c1cccnc1 (stereo not drawn) | 100 nM | 1000 nM | 
Cc1cnc(Cl)nc1-c1ccc2c(c1)CCC(C)N2C(=O)c1cc(Cl)c(O)cc1O (stereo not drawn) | 100 nM | 1000 nM | 
O=C(c1cc(Cl)c(O)cc1O)N1c2ccccc2CC[C@@H]1c1cccnc1 |  |  | 100 nM
C[C@H]1CCc2cc(C(=O)N(C)Cc3ccc4nccnc4c3)ccc2N1C(=O)c1ccc(O)cc1O | 10 nM | 1000 nM | 
COc1cnc(Cl)nc1-c1ccc2c(c1)CC[C@H](c1cccnc1)N2C(=O)c1cc(Cl)c(O)cc1O |  | 1000 nM | 100 nM
O=C(c1ccc(O)cc1O)N1c2ccccc2CCC1C(F)(F)F (stereo not drawn) |  |  | 100 nM
O=C(c1ccc(O)cc1O)N1c2ccccc2CCC1c1ccccn1 (stereo not drawn) | 1000 nM |  | 
O=C(c1ccc(O)cc1O)N1c2ccccc2CCC1c1ccn[nH]1 (stereo not drawn) | 100 nM |  | 
C[C@H]1CCc2cc(C(=O)N(C)Cc3ccc4ccccc4n3)ccc2N1C(=O)c1ccc(O)cc1O | 100 nM | 1000 nM | 
C[C@H]1CCc2cc(-c3ncnc4cccc(F)c34)ccc2N1C(=O)c1ccc(O)cc1O | 10 nM | 1000 nM | 
Cc1cccnc1-c1ccc2c(c1)CCC(c1cccnc1)N2C(=O)c1ccc(O)cc1O (stereo not drawn) | 10 nM |  | 

Results, then the compound that gave them:

IC50 [1] | IC50 [2] | IC50 [3] | SMILES
100 nM | 1000 nM |  | COc1cnc(Cl)nc1-c1ccc2c(c1)CC[C@H](C)N2C(=O)c1ccc(O)cc1O
1000 nM | 1000 nM |  | C[C@H]1CCc2cc(-c3nc(Cl)nc4c3ccn4C)ccc2N1C(=O)c1ccc(O)cc1O
100 nM | 1000 nM |  | C[C@H]1CCc2cc(-c3ncnc4ccsc34)ccc2N1C(=O)c1ccc(O)cc1O
1000 nM | 1000 nM |  | C[C@H]1CCc2cc(-c3nc(Cl)nc4[nH]ccc34)ccc2N1C(=O)c1ccc(O)cc1O
100 nM | 1000 nM |  | C[C@H]1CCc2cc(C(=O)N(C)Cc3cccc4ccccc34)ccc2N1C(=O)c1ccc(O)cc1O
100 nM | 1000 nM |  | Cc1nc(C(F)(F)F)nc(-c2ccc3c(c2)CC[C@H](C)N3C(=O)c2ccc(O)cc2O)c1C
10 nM | 1000 nM |  | Cc1cc(N)cnc1-c1ccc2c(c1)CC[C@H](C)N2C(=O)c1ccc(O)cc1O
100 nM | 1000 nM |  | CCNc1ccc(-c2ccc3c(c2)CC[C@H](C)N3C(=O)c2ccc(O)cc2O)c(C)n1
100 nM | 1000 nM |  | Cc1cc2ccccc2nc1-c1ccc2c(c1)CC[C@H](C)N2C(=O)c1ccc(O)cc1O
10 nM | 1000 nM |  | Cc1cc(S(=O)(=O)NCc2ccncc2)cnc1-c1ccc2c(c1)CC[C@H](C)N2C(=O)c1ccc(O)cc1O
10 nM | 1000 nM |  | Cc1cc(S(=O)(=O)NCc2cccs2)cnc1-c1ccc2c(c1)CC[C@H](C)N2C(=O)c1ccc(O)cc1O
1000 nM | 1000 nM |  | C[C@H]1CCc2cc(-c3nc(Cl)nc4ccsc34)ccc2N1C(=O)c1ccc(O)cc1O
100 nM |  |  | CS(=O)(=O)NCC1CCc2ccccc2N1C(=O)c1ccc(O)cc1O (stereo not drawn)
10 nM | 10000 nM |  | C[C@H]1CCc2cc(C(=O)N(C)Cc3cccs3)ccc2N1C(=O)c1ccc(O)cc1O
100 nM | 1000 nM |  | Cc1csc2ncnc(-c3ccc4c(c3)CC[C@H](C)N4C(=O)c3ccc(O)cc3O)c12
100 nM | 10000 nM |  | Cc1sc2ncnc(-c3ccc4c(c3)CC[C@H](C)N4C(=O)c3ccc(O)cc3O)c2c1C
1000 nM | 1000 nM |  | CSc1nc(-c2ccc3c(c2)CC[C@H](C)N3C(=O)c2ccc(O)cc2O)c2cc[nH]c2n1
100 nM | 1000 nM |  | COc1ccc(CN(C)C(=O)c2ccc3c(c2)CC[C@H](C)N3C(=O)c2ccc(O)cc2O)cc1
100 nM | 10000 nM |  | COCCNS(=O)(=O)c1cnc(-c2ccc3c(c2)CC[C@H](C)N3C(=O)c2ccc(O)cc2O)c(C)c1
100 nM |  |  | CCN(CC)S(=O)(=O)c1ccc2c(c1)CCC(C)N2C(=O)c1ccc(O)cc1O (stereo not drawn)
100 nM | 1000 nM |  | Cc1cc(S(=O)(=O)NCC2CC2)cnc1-c1ccc2c(c1)CC[C@H](C)N2C(=O)c1ccc(O)cc1O
100 nM | 1000 nM |  | COCCOc1ncc(C)c(-c2ccc3c(c2)CC[C@H](C)N3C(=O)c2ccc(O)cc2O)n1
100 nM |  |  | Cc1cccnc1-c1ccc2c(c1)CCC(CNS(C)(=O)=O)N2C(=O)c1ccc(O)cc1O (stereo not drawn)
